Data taken from US20240024412A1, “PHARMACEUTICAL COMPOSITION FOR TREATING CDI COMPRISING CLAY MINERAL COMPLEX, AND METHOD FOR PRODUCING SAME” (priority 2020, published 2024).

Test system: C. difficile
Test: mouse acute CDI model using dextran sulfate sodium (DSS), survival rate after oral administration
Assay type: in vivo
Settings: for Mouse survival rate (%) according to type of administered drug: 10 mg/kg of vancomycin alone
Protocol: FIG. 3 is a diagram sequentially illustrating a series of experiments of being treated with dextran sodium sulfate (DSS), being infected with C. difficile, being administered with a bentonite-vancomycin complex, and observing survival rates, in order to produce a mouse acute CDI model. […]
In order to set the mixing ratio of the bentonite-antibiotics complex, vancomycin was orally administered at concentrations of 2, 20, and 200 mg/kg in a mouse acute CDI model using DSS, and the results were shown in Table 2 below and FIG. 5.
In order to confirm a synergistic effect on CDI treatment through the bentonite-antibiotics complex, according to the daily intake, the bentonite was administered at a dose concentration of 50 mg/kg and the vancomycin was administered at a dose concentration of 5 mg/kg, and the survival rates of mice were confirmed as compared to cases of administering 10 mg/kg of vancomycin alone, 50 mg/kg of bentonite alone, and saline alone as control groups thereto.

CN[C@H](CC(C)C)C(=O)N[C@H]1C(=O)N[C@@H](CC(N)=O)C(=O)N[C@H]2C(=O)N[C@H]3C(=O)N[C@H](C(=O)N[C@H](C(=O)O)c4cc(O)cc(O)c4-c4cc3ccc4O)[C@H](O)c3ccc(c(Cl)c3)Oc3cc2cc(c3O[C@@H]2O[C@H](CO)[C@@H](O)[C@H](O)[C@H]2O[C@H]2C[C@](C)(N)[C@H](O)[C@H](C)O2)Oc2ccc(cc2Cl)[C@H]1O [Vancomycin, vancomycin]
Mouse survival rate (%) according to type of administered drug (D+14): 1/6 (17%)
Mouse survival rate (%) according to type of administered drug (D-0): 6/6 (100%)
Mouse survival rate (%) according to vancomycin dose (vancomycin 2 mg/kg orally, D+14): (20%)
Mouse survival rate (%) according to vancomycin dose (vancomycin 2 mg/kg orally, D+14, listed as vancomycin): 20%
Mouse survival rate (%) according to vancomycin dose (vancomycin 2 mg/kg orally, D-0): (100%)
Mouse survival rate (%) according to vancomycin dose (vancomycin 20 mg/kg orally, D+14): 5/5 (100%)
Mouse survival rate (%) according to vancomycin dose (vancomycin 20 mg/kg orally, D+14, listed as vancomycin): 100%
Mouse survival rate (%) according to vancomycin dose (vancomycin 20 mg/kg orally, D-0): 5/5 (100%)
Mouse survival rate (%) according to vancomycin dose (vancomycin 200 mg/kg orally, D+14): 5/5 (100%)
Mouse survival rate (%) according to vancomycin dose (vancomycin 200 mg/kg orally, D+14, listed as vancomycin): 100%
Mouse survival rate (%) according to vancomycin dose (vancomycin 200 mg/kg orally, D-0): 5/5 (100%)
